# Patent US9597314B2, “Beta-lactamylalkanoic acids for treating premenstrual disorders” (AZEVAN PHARMACEUTICALS, INC., priority 2005, dated 2017)
# pKi: −log10 of the molar value.
# Biological target: V1a (Homo sapiens, UniProt P37288)
# Test: Human vasopression V1a receptor binding assay
# Set-up: host or cells: CHO cells (hV1a cell line), whole adherent cells
# Settings: hV1a cell line (CHO); for IC50: 1 nM 3H-AVP, Table 17, read-out: V1a Binding Affinity (IC50 (nM)); for pKi: Table 18
# Protocol: Human vasopression V1a receptor binding assay. A cell line expressing the human V1a receptor in CHO cells (henceforth referred to as the hV1a cell line) was obtained from Dr. Michael Brownstein, NIMH, Bethesda, Md., USA. The hV1a cDNA sequence is described by Thibonnier et al., Journal of Biological Chemistry, 269, 3304-3310 (1994), and the expression method was the same as described by Morel et al. (1992). The hV1a cell line was grown in alpha-MEM with 10% fetal bovine serum and 250 ug/ml G418 (Gibco, Grand Island, N.Y., USA). For competitive binding assay, hV1a cells were plated into 6-well culture plate at 1:10 dilution from a confluency flask, and maintained in culture for at least two days. Culture medium was then removed, cells were washed with 2 ml binding buffer (25 mM Hepes, 0.25% BSA, 1×DMEM, PH=7.0). To each well, 990 μl binding buffer containing 1 nM 3H-AVP was added, and followed by 10 μl series diluted Example compounds dissolved in DMSO. […] 100 nM cold AVP (Sigma) was used to assess non-specific binding. Cells were incubated for 45 minutes at 37° C., assay mixture was removed and each well was washed three times with PBS (pH=7.4). 1 ml 2% SDS was added per well and plates were let sit for 30 minutes. The whole content in a well was transferred to a scintillation vial. Each well was rinsed with 0.5 ml PBS which was then added to the corresponding vial. Scintillation fluid (Ecoscint, National Diagnostics, Atlanta, Ga.) was then added at 3 ml per vial. Samples were counted in a liquid scintillation counter (Beckman LS3801). IC50 values were calculated by Prism Curve fitting software.
# All of the alkanedioic esters and amides exemplified in the foregoing examples dissolved in DMSO were tested in this assay. Binding curves were generated according to methods described by Thibonnier et al. (1994). [^3H]-AVP was added to the hV1a cell cultures followed by 10 fold dilutions of each test compound.
# V1a, sequence (P37288 whole entry): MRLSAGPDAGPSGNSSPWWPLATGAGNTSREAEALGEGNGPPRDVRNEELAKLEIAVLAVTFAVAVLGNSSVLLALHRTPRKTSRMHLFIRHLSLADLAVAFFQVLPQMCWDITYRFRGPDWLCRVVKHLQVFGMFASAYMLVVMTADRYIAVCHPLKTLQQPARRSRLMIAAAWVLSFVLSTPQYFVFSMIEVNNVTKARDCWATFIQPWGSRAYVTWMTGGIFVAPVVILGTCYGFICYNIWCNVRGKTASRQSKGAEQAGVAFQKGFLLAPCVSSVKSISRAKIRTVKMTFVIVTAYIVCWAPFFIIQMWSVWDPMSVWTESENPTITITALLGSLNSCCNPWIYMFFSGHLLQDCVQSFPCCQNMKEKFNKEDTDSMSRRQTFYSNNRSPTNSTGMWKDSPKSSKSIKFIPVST
IC50 [nM],pKi,Compound
0.49,9.52,O=C(NCc1cccc(C(F)(F)F)c1)[C@H](CCC(=O)N1CCN(C2CCCCC2)CC1)N1C(=O)[C@@H](N2C(=O)OC[C@@H]2c2ccccc2)[C@H]1/C(Cl)=C/c1ccccc1 [Example 226]
< 10,,CCN1CCN(C(=O)CC[C@@H](C(=O)NCc2cccc(C(F)(F)F)c2)N2C(=O)[C@@H](N3C(=O)OC[C@@H]3c3ccccc3)[C@H]2/C=C/c2ccccc2)CC1 [Example 221AC]
1.77,8.93,O=C(NCc1cccc(C(F)(F)F)c1)C(C(=O)N1CCC(CCN2CCCCC2)CC1)N1C(=O)[C@@H](N2C(=O)OC[C@@H]2c2ccccc2)[C@H]1/C=C/c1ccccc1 (mixture of isomers) [Example 42A]
,8.47,O=C(NCc1cccc(C(F)(F)F)c1)C(C(=O)N1CCC(N2CCCCC2)CC1)N1C(=O)[C@@H](N2C(=O)OC[C@@H]2c2ccccc2)[C@H]1/C=C/c1ccccc1 (mixture of isomers) [Example 37]
5.13,8.50,O=C(N[C@H]1CCc2ccccc21)[C@H](CCC(=O)N1CCN(C2CCCCC2)CC1)N1C(=O)[C@@H](N2C(=O)OC[C@@H]2c2ccccc2)[C@H]1/C=C/c1ccccc1 [Example 221R]
,9.31,"CCCCN1CCN(C(=O)CCC(C(=O)NCc2cccc(C(F)(F)F)c2)N2C(=O)C(N3C(=O)OCC3c3ccccc3)C2C=Cc2ccccc2)CC1 (single isomer, unassigned) [Example 103]"
< 50,,CC(NC(=O)[C@H](CCC(=O)N1CCN(C2CCCCC2)CC1)N1C(=O)[C@@H](N2C(=O)OC[C@@H]2c2ccccc2)[C@H]1/C=C/c1ccccc1)c1ccccc1 (some centres unmarked) [Example 195]
8.4,8.29,O=C(CC[C@@H](C(=O)N1CCc2ccccc2C1)N1C(=O)[C@@H](N2C(=O)OC[C@@H]2c2ccccc2)[C@H]1/C=C/c1ccccc1)N1CCN(C2CCCCC2)CC1 [Example 221O]
< 100,,Cc1ccc(CNC(=O)[C@H](CCC(=O)N2CCN(C3CCCCC3)CC2)N2C(=O)[C@@H](N3C(=O)OC[C@@H]3c3ccccc3)[C@H]2/C=C/c2ccccc2)cc1 [Example 194]
12.7,8.11,CCCCN1CCN(C(=O)CC[C@@H](C(=O)NCc2cccc(C(F)(F)F)c2)N2C(=O)C(N3C(=O)OC[C@@H]3c3ccccc3)C2/C(Br)=C/c2ccccc2)CC1 (some centres unmarked) [Example 230L]
~100,,O=C(CC[C@@H](C(=O)N[C@@H]1CCCc2ccccc21)N1C(=O)[C@@H](N2C(=O)OC[C@@H]2c2ccccc2)[C@H]1/C=C/c1ccccc1)Nc1cnc2ccccc2c1 [Example 221AL]
0.56,9.47,O=C([C@@H](COCc1ccccc1)N1C(=O)[C@@H](N2C(=O)OC[C@@H]2c2ccccc2)[C@H]1/C=C/c1ccccc1)N1CCC(CCN2CCCCC2)CC1 [Example 233]
,7.98,CCCCN1CCN(C(=O)CC[C@H](C(=O)NCc2cccc(C(F)(F)F)c2)N2C(=O)[C@@H](N3C(=O)OC[C@@H]3c3ccccc3)[C@H]2/C=C/c2ccccc2)CC1 [Example 137]
4,8.60,O=C(NC1(c2ccccc2F)CCCC1)[C@H](CCC(=O)N1CCN(C2CCCCC2)CC1)N1C(=O)[C@@H](N2C(=O)OC[C@@H]2c2ccccc2)[C@H]1/C=C/c1ccccc1 [Example 221H]
9.79,8.22,O=C(NCc1cccc(C(F)(F)F)c1)[C@H](CC(=O)N1CCC(CCN2CCCCC2)CC1)N1C(=O)[C@@H](N2C(=O)OC[C@@H]2c2ccccc2)[C@H]1/C=C/c1ccccc1 [Example 86A]
0.81,,O=C(NCc1cc(F)cc(C(F)(F)F)c1)[C@H](CCC(=O)N1CCN(C2CCCCC2)CC1)N1C(=O)[C@@H](N2C(=O)OC[C@@H]2c2ccccc2)[C@H]1/C=C/c1ccccc1 [Example 179]
10.5,8.19,COc1cc(CNC(=O)[C@H](CCC(=O)N2CCN(C3CCCCC3)CC2)N2C(=O)[C@@H](N3C(=O)OC[C@@H]3c3ccccc3)[C@H]2/C=C/c2ccccc2)cc(OC)c1 [Example 201]
